Measurements taken from patent US9663488B2, “Metalloenzyme inhibitor compounds” (Viamet Pharmaceuticals, Inc., priority 2013, dated 2017).
Counter-ions that a name gives are not always drawn.

target: T1, LpxC (Pseudomonas aeruginosa, UniProt P47205); test: Inhibition of LpxC Enzyme; type: biochemical; details: LpxC enzyme is pseudomonas construct
T1 sequence (P47205 1-303): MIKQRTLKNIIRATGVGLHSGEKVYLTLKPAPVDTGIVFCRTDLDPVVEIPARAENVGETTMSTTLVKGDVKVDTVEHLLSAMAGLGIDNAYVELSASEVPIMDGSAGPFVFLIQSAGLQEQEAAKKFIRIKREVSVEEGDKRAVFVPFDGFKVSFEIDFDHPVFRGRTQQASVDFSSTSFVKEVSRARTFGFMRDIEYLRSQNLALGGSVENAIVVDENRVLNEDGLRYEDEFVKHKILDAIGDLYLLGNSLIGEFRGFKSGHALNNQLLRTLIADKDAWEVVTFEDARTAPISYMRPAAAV
Experimental: [The source words this procedure for another target and reports this target under the same test.] A. Inhibition of LpxC Enzyme
Test compounds were dissolved in 100% DMSO @ 10 mM. Then a series of dilutions were done with 100% DMSO, these were the first intermediate dilutions. Individual 100% DMSO dilutions were diluted independently to another intermediate dilution using assay buffer (bringing the DMSO concentration to 5%). Finally, 10 μl of all these 5% intermediate dilutions were used directly in the 50 μl reaction, making the final DMSO testing concentration at 1%. The enzymatic reactions were conducted in duplicate at room temperature for 1 hour in a 50 μL mixture containing MMP-2 assay buffer, 1 μM Mca-PLGLDpaAR, 10 uL MPP-2 enzyme (1.8 ng) and 10 μL of a test compound. All the reactions were conducted using 10 μl MMP-2 assay buffer in place of enzyme, to detect just the background fluorescence from the compound. After enzymatic reactions, fluorescence intensity was measured at an excitation of 328 nm and an emission of 393 nm using a Tecan Infinite M1000™ microplate reader.

IC50 | SMILES
4 nM | O=C(O)CCCOc1ccc(-c2ccc(-c3cc(N4C(=O)CNC4=S)c4cnccc4n3)cc2)cc1 [Example 83, 4-((4′-(4-(5-oxo-2-thioxoimidazolidin-1-yl)-1,6-naphthyridin-2-yl)-[1,1′-biphenyl]-4-yl)oxy)butanoic acid]
5 nM | CS(=O)(=O)Nc1cc2nc(-c3ccc(-c4ccc(-c5cc(CO)on5)cc4)cc3)cc(C(=O)NN)c2cn1 [Example 327, N-(4-(hydrazinecarbonyl)-2-(4′-(5-(hydroxymethyl)isoxazol-3-yl)-[1,1′-biphenyl]-4-yl)-1,6-naphthyridin-7-yl) methanesulfonamide hydrochloride]
2 nM | CS(=O)(=O)NCc1cc(-c2ccc(-c3ccc(-c4cc(C(=O)NN)c5cnccc5n4)cc3)cc2)no1 [Example 35, N-((3-(4′-(4-(hydrazinecarbonyl)-1,6-naphthyridin-2-yl)-[1,1′-biphenyl]-4-yl)isoxazol-5-yl)methyl)methanesulfonamide]
8 nM | NNC(=O)c1cc(-c2ccc(-c3ccc(-c4cc(C(=O)N5CCCCC5C(=O)O)on4)cc3)cc2)nc2ccncc12 (racemic) [Example 115, 1-(3-(4′-(4-(hydrazinecarbonyl)-1,6-naphthyridin-2-yl)-[1,1′-biphenyl]-4-yl)isoxazole-5-carbonyl)piperidine-2-carboxylic acid]
5 nM | NNC(=O)c1cc(-c2ccc(C#Cc3ccc(NS(=O)(=O)C(F)(F)F)cc3)cc2)nc2ccncc12 [Example 185, 1,1,1-trifluoro-N-(4-((4-(4-(hydrazinecarbonyl)-1,6-naphthyridin-2-yl)phenyl)ethynyl)phenyl)methanesulfonamide]
6 nM | NNC(=O)c1cc(-c2ccc(-c3ccc(OCCNS(=O)(=O)C(F)(F)F)cc3)cc2)nc2ccncc12 [Example 101]
2 nM | CS(=O)(=O)Nc1cc2nc(-c3ccc(C#Cc4ccc(C(=O)N5CCCC[C@H]5C(=O)O)cc4Cl)cc3)cc(C(=O)NN)c2cn1 [Example 309, (S)-1-(3-chloro-(4-((4-(4-(hydrazinecarbonyl)-7-(methylsulfonamido)-1,6-naphthyridin-2-yl)phenyl)ethynyl)benzoyl)piperidine-2-carboxylic acid hydrochloride]
4 nM | NNC(=O)c1cc(-c2ccc(-c3ccc(-c4cc(C(=O)N5CCC[C@@H]5C(=O)O)on4)cc3)cc2)nc2ccncc12 [Example 31, (R)-1-(3-(4′-(4-(hydrazinecarbonyl)-1,6-naphthyridin-2-yl)-[1,1′-biphenyl]-4-yl)isoxazole-5-carbonyl)pyrrolidine-2-carboxylic acid hydrochloride]
18 nM | CCC(C)C(NC(=O)c1ccc(C#Cc2ccc(-c3cc(C(=O)NN)c4cnccc4n3)cc2)cc1)C(=O)O (racemic) [Example 172, 2-(4-((4-(4-(hydrazinecarbonyl)-1,6-naphthyridin-2-yl)phenyl)ethynyl)benzamido)-3-methylpentanoic acid]
2 nM | NNC(=O)c1cc(-c2ccc(-c3ccc(-c4cc(CO)on4)cc3)cc2)nc2cc(NS(=O)(=O)CC(=O)O)ncc12 [Example 328, 2-(N-(4-(hydrazinecarbonyl)-2-(4′-(5-(hydroxymethyl)isoxazol-3-yl)-[1,1′-biphenyl]-4-yl)-1,6-naphthyridin-7-yl)sulfamoyl)acetic acid hydrochloride]

SMILES | IC50
O=C(NO)[C@@H](Cc1ccc2ccccc2c1)NS(=O)(=O)c1ccc2ccccc2c1 [BB-78485] | 20 nM
NNC(=O)c1cc(-c2ccc(C#Cc3ccc(C(=O)N4CCCC[C@H]4C(=O)O)cc3Cl)cc2)nc2ccncc12 [Example 202, (S)-1-(3-chloro-4-((4-(4-(hydrazinecarbonyl)-1,6-naphthyridin-2-yl)phenyl)ethynyl)benzoyl)piperidine-2-carboxylic acid hydrochloride] | 2 nM

test system: Pseudomonas aeruginosa (ATCC 27853); test: Minimum Inhibitory Concentration (MIC), CLSI broth microdilution; type: cell-based; details: ATCC27853, 35±1° C., 18±2 h, concentration which completely inhibited growth
Experimental: A. Minimum Inhibitory Concentration (MIC)
Minimum Inhibitory Concentrations (MICS) were determined for Escherichia coli (American Type Culture Collection (ATCC) 25922) and Pseudomonas aeruginosa (ATCC 27853) in accordance with the Clinical and Laboratory Standards Institute (CLSI). Serial, one-half dilutions of compounds were prepared in 96-well dilution blocks in cation-adjusted Mueller-Hinton Broth (MBH)+2% DMSO and transferred to 96-well assay plates in duplicate. Cell suspensions of E. coli and P. aeruginosa were prepared in MHB and added to each well at concentrations of approximately 1.2×10^6 and 3.3×10^6 colony-forming-units per milliliter (cfu/mL), respectively. The inoculated plates were incubated at 35±1° C. for 18±2 h. At the completion of incubation the wells of each plate were evaluated visually for the presence of growth. […] In addition to visual evaluation, optical densities were determined using a Tecan Infinite M200 microplate reader measuring absorbance at 600 nm.

SMILES | MIC
NNC(=O)c1cc(-c2ccc(C#Cc3ccc(C(=O)N4CCCC[C@H]4C(=O)O)cc3Cl)cc2)nc2ccncc12 [Example 202, (S)-1-(3-chloro-4-((4-(4-(hydrazinecarbonyl)-1,6-naphthyridin-2-yl)phenyl)ethynyl)benzoyl)piperidine-2-carboxylic acid hydrochloride] | 128 mg/L
